Test results reported in ChEMBL document CHEMBL3507680, “University of Dundee, Gates Library screen for HepG2 cell viability”.

Assay: Human HepG2 cell viability assay in 384 well format
Format: toxicity, cell-based
Set-up: dose 125 nL, time 70.5 hour; cytotoxicity at 70.5 h: concentration not given beside the values
Details: HepG2 cells, read-out: Inhibition

Row | SMILES | cytotoxicity at 70.5 h [%]
1 | CCCc1nnc(N(C)CC2CCN(CC(C)C)C2)o1 (stereo not drawn) | -1.56
2 | CCOC(C)c1nc(CNc2cccc(Cl)c2OC)cs1 (stereo not drawn) | 8.97
3 | Cc1cc(NCc2ccc(CS(N)(=O)=O)cc2)nc(C)n1 | -12.6
4 | Cn1nccc1-c1nc2c(cc1C(=O)O)CCN(C(=O)C1CC1)CC2 | -2.87
5 | O=S(=O)(c1ccccc1)N1CCC2(CCCN2Cc2cccc(F)c2)C1 (stereo not drawn) | 6.89
6 | O=C(Cc1ccccc1Cl)N1CCCC(n2cncn2)C1 (stereo not drawn) | -7.27
7 | CCOc1ccnc(N2CCN(C(=O)c3cccnc3)CC2)n1 | -8.35
8 | CCN1CCCN(c2ccc(-n3ccc(C)n3)nn2)CC1 | 10.6
9 | Cc1csc(NC(=O)c2cnc(C3CCCN(C)C3)cn2)n1 (stereo not drawn) | -8.15
10 | CC(C)c1nnc2n1CCN(C(=O)c1cc3cc(F)ccc3[nH]1)C2 | -16.2
11 | NC(=O)c1cc(C2CCCN(C(=O)CCc3cscn3)C2)n[nH]1 (stereo not drawn) | -11.7
12 | COc1ccc(-n2ccc(CNCc3ccc(OC)c(O)c3)n2)cc1 | 2.11
13 | O=C1CC2(CCN(C(=O)c3ccccn3)CC2)Oc2c(Br)cc(Br)cc21 | 1.74
14 | Cc1ncc(CN2CCCC(c3nc4ccccc4n3C(C)C)C2)s1 (stereo not drawn) | -2.93
15 | CC(NC(=O)N1CCC2(C1)OCCO2)c1cccc(Cl)c1 (stereo not drawn) | -4.94
16 | CCc1ccc(NC(=O)CC2Cn3ncnc3NC2=O)cc1 (stereo not drawn) | -16.3
17 | CC(O)CNC(=O)NCc1cccnc1OC1CCCC1 (stereo not drawn) | -6.8
18 | CC(C)N1CCC2(CC1)NC(=O)c1cc(Br)ccc1-n1nnnc12 | -4.14
19 | CC(C)c1noc(CCCC(=O)N2CCN(Cc3ccsc3)CC2)n1 | -6.21
20 | Cc1ccc(CN2CCO[C@H]3[C@@H](OCc4cccnc4)CC[C@@H]32)o1 | -14.9
21 | O=C(NCCCN1CCOCC1)c1cc(-c2ccccc2)[nH]n1 | -1.59
22 | O=C1N(Cc2ccccc2F)CCCC12CCN(C1CCSCC1)C2 (stereo not drawn) | -4.98
23 | Cc1nc2oc(C(=O)N3CCOCC3)c(N)c2c2c1CCCC2 | -17.3

Row | SMILES | cytotoxicity at 70.5 h [%]
24 | CN(C)C(=O)CN1C(=O)CO[C@@H]2CN(c3ccccn3)C[C@H]21 | -7.96
25 | COc1ccc(C)cc1CC(=O)N1CC[C@@]2(CCCO2)[C@@H](O)C1 | -5.66
26 | COCC1COCCC12CCN(C(=O)Cc1ccc(F)cc1)CC2 (stereo not drawn) | -16.1
27 | CCN1CCN(C(=O)CCc2c(C)noc2Cl)CC1 | -13.8
28 | Cn1cc(CN2CCCC23CCN(C(=O)c2cccs2)CC3)cn1 | -11.6
29 | Cc1ccnc(NCCNC(=O)CCNC(=O)c2ccccc2F)c1 | 1.01
30 | Cc1cc(-c2nn3c(C4CCC4)nnc3s2)on1 | -7.88
31 | O=C(c1cc(F)cc2[nH]cnc12)N1CCCCC1Cn1cccn1 (stereo not drawn) | -7.7
32 | Cc1noc(C)c1CN(C)CC(=O)N1CCc2sccc2C1 | -1.77
33 | Cc1nc2cc(C(=O)N3C[C@@H](C(=O)O)[C@H](C4CC4)C3)ccc2[nH]1 | -3.58
34 | Cc1cnc(C)c(N2CCN(CC3CCCO3)CC2)n1 (stereo not drawn) | -6.94
35 | COCCCC1CCCN(C(=O)CCc2cc(O)no2)C1 (stereo not drawn) | -1.74
36 | Cc1cc(C)c2c(c1)C(CC(=O)O)C(=O)N2 (stereo not drawn) | 24.2
37 | CCCN1CCC(CNC(=O)C2(c3cccc(C)c3)CC2)C1 (stereo not drawn) | 4.42
38 | COc1ccccc1OC1CN(C(=O)c2ccc(C(C)=O)s2)C1 | -10.9
39 | c1ncn(CC2CCCN(Cc3nnc(C4CC4)o3)C2)n1 (stereo not drawn) | 11.5
40 | COCCNC(=O)c1cc2c(c3ccccc3n2C)n1C(=O)N(C)C | -9.07
41 | O=C(c1ccon1)N1CCCC(n2cncn2)C1 (stereo not drawn) | -1.78
42 | COCCNC(=O)CN1CCN(c2nc3cc(C)ccc3o2)CC1 | -1.86
43 | CCc1nsc(N2CCn3c(nnc3-c3ccccc3)C2)n1 | -4.9
44 | c1ccc(-n2cc(CN3CCCC3Cn3cncn3)nn2)cc1 (stereo not drawn) | -1.22
45 | Cc1ncsc1CN(Cc1ccccc1)Cc1ccncc1 | 8.23
46 | O=C(CCCNCc1ccc(Cl)c2cccnc12)NC1CC1 | -1.79

Row | SMILES | cytotoxicity at 70.5 h [%]
47 | O=C(NCc1nnnn1-c1ccccc1)c1ccc(C2CCCO2)s1 (stereo not drawn) | -4.49
48 | COc1ccccc1N1CC(NC(=O)Cn2cc(C(C)C)nn2)CC1=O (stereo not drawn) | -9.11
49 | O=C(OCC1CCCN1)c1cccc(NC(=O)c2ccco2)c1 (stereo not drawn) | -14.8
50 | COc1cccc(CN2CC(O)CN(S(C)(=O)=O)CC2=O)c1OC (stereo not drawn) | 4.13
51 | CC(C)c1nc(CN(C)CC2CCN(CCO)CC2)no1 | -5.69
52 | O=C(COc1ccc2c(c1)CCC2)N1CCCC1c1ccc[nH]1 (stereo not drawn) | -23.1
53 | O=C(c1coc(COc2cccc3cnccc23)n1)N1CCCCCC1 | -1.27
54 | CCN(CC)C(=O)Cn1ccc2cc(NC(=O)NC3CC3)ccc21 | -3.42
55 | CC(C)Nc1nc2c(s1)C(=O)CN(C(=O)NCCc1ccccc1)C2 | -4.98
56 | CC1CN(C(=O)c2ccc(=O)n(C)c2)c2ccccc2NC1=O (stereo not drawn) | -0.859
57 | COCCNC(=O)[C@@H]1CC[C@@H]2[C@@H](CCN2c2ncc(F)cn2)O1 | -3.55
58 | O=S(=O)(Cc1c(F)cccc1Cl)Cc1nnnn1C1CC1 | -13.2
59 | CC(C)C(=O)NC1CCN(Cc2cccc3c2OCCO3)CC1 | -1.98
60 | CCNC(=O)C1CCN(Cc2ccccc2OCC(F)(F)F)CC1 | -4.11
61 | Cc1ccccc1N1CCCN(C(=O)CCCn2ccnc2C)CC1 | -12.2
62 | CCOC(=O)C1CCN(c2cc(C(=O)N3CCOCC3)nc(C)n2)CC1 | 0.918
63 | CN(Cc1nccn1CC(F)(F)F)C(=O)c1ccc(F)c(F)c1 | -1.82
64 | CC1CCCN(C(=O)Nc2cccc(CN3CCOC3=O)c2)C1 (stereo not drawn) | 35.6
65 | CN(C)C(=O)N1C[C@@H]2CC[C@H](C1)N(Cc1nnc(-c3ccccc3)o1)C2 | -16.7
66 | OC(CN1CCC(c2ccn[nH]2)CC1)c1cccc(F)c1 (stereo not drawn) | -28.7
67 | COCC(O)CNC(=O)Nc1ccc(Cl)cc1-n1cccc1 (stereo not drawn) | -7.23
68 | Cc1ccnc(N2CCCC(c3nccn3C(C)C)C2)n1 (stereo not drawn) | 1.49
69 | CC(O)CN1CCC(CNCc2ccccc2OC(F)(F)F)CC1 (stereo not drawn) | 2.51

Row | SMILES | cytotoxicity at 70.5 h [%]
70 | CN(Cc1nnc2ccccn12)C(=O)NC1CCCCC1 | -4.44
71 | CCN(CC)C(CNS(=O)(=O)NCc1ccccc1)c1ccco1 (stereo not drawn) | -2.25
72 | COc1ccccc1C(=O)N(C)C1CCN(c2ccccn2)CC1 | -0.00253
73 | CCc1ccc(NC(=O)c2ncc(C(N)=O)cc2Cl)cc1F | -107
74 | COC[C@@]12CCC[C@@H]1CN(C(=O)COc1ccccc1OC)C2 | -3.63
75 | O=C1CC(Cc2ccc(NC(=O)c3cccc(F)c3)cc2)C(=O)N1 (stereo not drawn) | -3.69
76 | Cc1cnn(CC2CCCCN2C(=O)c2cc(Cl)c[nH]2)c1 (stereo not drawn) | 7.01
77 | Clc1cncc(N2CCN(Cc3ccon3)CC2)n1 | -3.48
78 | O=S(=O)(N1CCOCC1)N1CCCCC1CCc1ccc(O)cc1 (stereo not drawn) | -1.47
79 | COc1cc(CN[C@@H]2COC[C@H]2Cc2cc(C)no2)cc(OC)c1 | -6.2
80 | O=C1NCCCCC1NCc1csc(-c2ccsc2)n1 (stereo not drawn) | 7.38
81 | Cc1n[nH]c(C)c1CCNC(=O)C1CCCN(Cc2ccco2)C1 (stereo not drawn) | 9.52
82 | OC(COCc1ccccc1)CN1CCC(c2ccn[nH]2)CC1 (stereo not drawn) | 19.6
83 | CC(C)CN(C)Cc1nc2c(cnn2C)c(=O)[nH]1 | 12.1
84 | CC1CN(C(=O)Nc2ccc(Cl)c(C(=O)NC3CC3)c2)CC(C)(C)O1 (stereo not drawn) | -7.92
85 | COc1cccc(-c2nc(C)c(C(=O)NCCC(=O)O)s2)c1 | -15.8
86 | Cc1c(Cl)c(C(=O)N2C[C@@H](C(=O)O)[C@H](c3cccnc3)C2)nn1C | 8.35
87 | CNC(=O)[C@H]1C[C@@H]2CN(S(=O)(=O)c3ccccc3)C[C@@H]2N1C | -8.21
88 | Cc1cc(C(F)(F)F)c2c(=O)n(Cc3cc(C)on3)n(C)c2n1 | -8.02
89 | CCOc1cccc(C(C)NC(=O)N2CCC3(CC2)OCCO3)c1 (stereo not drawn) | -13.2
90 | Cc1ccsc1CNC(=O)CC1CN(C(=O)OC(C)(C)C)C1 | -9.31
91 | Cc1cn2nc(N3CCN(Cc4nc(C(C)C)no4)CC3)sc2n1 | 19.7
92 | O=C1OCCN1CCNc1ncc2c(n1)CCN2c1ccccc1 | -6.11

Row | SMILES | cytotoxicity at 70.5 h [%]
93 | N#Cc1cccc(C(=O)NS(=O)(=O)c2ccc(C#N)c(Cl)c2)c1 | 27.3
94 | CC(=O)N1CCC(c2nc(C)cc(-c3ccccc3C(=O)O)n2)CC1 | -3.01
95 | O=C(CC1CC1)N1CCC2(CC1)CN(c1ncccn1)CCO2 | -7.66
96 | CCCn1ncc(CN(Cc2cccnc2)Cc2cccs2)c1C | 21.4
97 | Cc1c(S(=O)(=O)NC2CC2)cc2c(C)cc(=O)n3c2c1CCC3 | 0.953
98 | Cc1cc(CN2CC[C@@H]3[C@@H](CCC(=O)N3CCc3c[nH]cn3)C2)oc1C | 1.03
99 | Cc1ccc(NC(=O)N(C)C)c(C(=O)OCC(=O)NC2CCCC2)c1 | -0.892
100 | CCC(C)C(=O)NCCc1nc(C(F)(F)F)cs1 (stereo not drawn) | -6.38
101 | CC1(C)CC(N2Cc3nc(N4CCOCC4)ncc3C2=O)CC(C)(C)N1 | 13.3
102 | COC(=O)[C@H](CCSC)NC(=O)Cc1c(C)nn(-c2ccccc2)c1C | -11.6
103 | COc1ccc(CN2CCC3(CC2)NC(=O)CC3c2ccncc2)cc1 (stereo not drawn) | -7.29
104 | Cc1ccsc1[C@@H]1CCN(C(=O)CCc2cc(O)no2)C[C@H]1O | -15.1
105 | COCCn1ccc2cc(NC(=O)COC)ccc21 | -3.46
106 | O=C(c1cc(Cl)c[nH]1)N(CCCO)Cc1cccnc1 | -8.59
107 | O=C(NCCNc1ncccn1)C1CC(=O)N(C2CCCC2)C1 (stereo not drawn) | -6.36
108 | Cc1nc(CN2CCCC2C(=O)OCc2ccccc2)oc1C (stereo not drawn) | -10.3
109 | COCC1CCN(C(=O)c2cccc(S(=O)(=O)NCC3(C)COC3)c2)C1 (stereo not drawn) | -3.93
110 | CCc1ccccc1NCc1nc2[nH]c(C)c(C)c(=O)n2n1 | 10.8
111 | O=C(c1cnco1)N1C[C@@H](O)[C@H](Oc2cccc(F)c2)C1 | 14.4
112 | Cc1ccc(Oc2c(F)cccc2OC[C@@H](N)CC(C)C)cc1 | 23.8
113 | CNc1ncccc1CN1CCN(C(C)=O)CC(C(N)=O)C1 (stereo not drawn) | -4.74
